According to the NIST ThermoML archive (doi:10.1016/j.tca.2013.10.024):
Values joined by “and” are separate entries in the source; they are usually repeats but may differ in a detail not shown here. Equal values may be shown once.

Conditions: Crystal, Calculated from knudsen effusion weight loss

O=S(=O)([O-])[O-].[K+].[K+] [potassium sulfate]
Conditions	vapor or sublimation pressure
1193 K	2.255e-05 kPa
1201 K	4.069e-05 kPa
1202 K	3.268e-05 kPa
1207 K	5.831e-05 kPa
1212 K	4.467e-05 kPa
1214 K	4.592e-05 kPa and 5.841e-05 kPa
1218 K	4.274e-05 kPa
1221 K	7.584e-05 kPa
1223 K	9.497e-05 kPa
1224 K	6.12e-05 kPa
1225 K	5.984e-05 kPa
1226 K	7.236e-05 kPa
1227 K	0.0001197 kPa
1228 K	0.0001335 kPa and 9.75e-05 kPa
1233 K	6.173e-05 kPa
1235 K	6.966e-05 kPa and 0.0001125 kPa
1238 K	0.000154 kPa and 7.448e-05 kPa
1239 K	0.000181 kPa and 0.0001288 kPa
1240 K	9.576e-05 kPa
1241 K	0.0001668 kPa
1243 K	0.0002943 kPa and 0.0001001 kPa
1244 K	0.000186 kPa [middle of 4 runs]
1245 K	0.0001671 kPa
1246 K	0.0001915 kPa and 0.0001729 kPa
1247 K	0.0002093 kPa
1248 K	0.0002174 kPa and 0.0001453 kPa
1253 K	0.0001091 kPa
1254 K	0.0001949 kPa
1255 K	0.0002829 kPa and 0.0001188 kPa
1258 K	0.000281 kPa and 0.0003264 kPa
1259 K	0.0001516 kPa and 0.0002187 kPa and 0.0003679 kPa
1260 K	0.0001623 kPa and 0.0004471 kPa
1263 K	0.0002656 kPa
1264 K	0.0005652 kPa and 0.0002789 kPa
1265 K	0.0003443 kPa and 0.0002937 kPa
1267 K	0.0005201 kPa and 0.0003602 kPa
1268 K	0.0003503 kPa [middle of 4 runs]
1269 K	0.0001536 kPa
1271 K	0.0003904 kPa
1272 K	0.0005138 kPa and 0.0005765 kPa and 0.0003016 kPa
1273 K	0.0001617 kPa and 0.0001919 kPa
1275 K	0.0006554 kPa
1276 K	0.0003422 kPa
1277 K	0.000463 kPa
1280 K	0.0004126 kPa
1281 K	0.0005285 kPa and 0.0002784 kPa
1282 K	0.000452 kPa
1283 K	0.0007481 kPa [middle of 5 runs]
1286 K	0.0004333 kPa
1288 K	0.0005671 kPa and 0.0005922 kPa and 0.0005203 kPa
1290 K	0.0009328 kPa and 0.0004622 kPa
1292 K	0.000853 kPa and 0.0003739 kPa and 0.0005323 kPa
1296 K	0.0006593 kPa and 0.0005992 kPa
1297 K	0.001092 kPa
1300 K	0.0007532 kPa [middle of 4 runs]
1301 K	0.0007786 kPa
1302 K	0.0004586 kPa and 0.0006547 kPa
1303 K	0.0003659 kPa
1304 K	0.0006238 kPa
1305 K	0.0008515 kPa [middle of 4 runs]
1306 K	0.001457 kPa
1308 K	0.0009057 kPa
1309 K	0.0005351 kPa and 0.000795 kPa
1311 K	0.001559 kPa
1313 K	0.001473 kPa
1314 K	0.001 kPa and 0.0008818 kPa
1315 K	0.0006036 kPa
1317 K	0.000929 kPa
1318 K	0.000916 kPa and 0.0006586 kPa
1320 K	0.001024 kPa
1325 K	0.001188 kPa and 0.001093 kPa
1326 K	0.0008296 kPa
1330 K	0.0008553 kPa and 0.001278 kPa
1332 K	0.001415 kPa
1334 K	0.00134 kPa
1335 K	0.001459 kPa
1336 K	0.001412 kPa
1341 K	0.001475 kPa
1343 K	0.001564 kPa
1347 K	0.001721 kPa
1349 K	0.001744 kPa
1352 K	0.001919 kPa
1355 K	0.001941 kPa
1359 K	0.002022 kPa
